Source: US10912760B1, “Method of inhibiting cancer metastasis” (Chung Shan Medical University, priority 2019, dated 2021)

Columns and labels:
[1] = system: colon cancer cells (DLD-1, SW480 and SW620); assay: Cell migration assay (transwell); format: cell-based, human
Method: (§1) FIG. 1A: Effect of Camphorataimide B on migration and invasion of colon cancer cells. For migration assay, three colon cancer cells (DLD-1, SW480 and SW620) were pretreated with the indicated concentrations of Camphoratamide B for 24 hours, seeded onto transwell inserts, and then incubated for 12 hours. For invasion assay, the three colon cancer cells were pretreated with the indicated concentrations of Camphorataimide B for 24 hours, seeded onto Matrigel coated transwell inserts, and then incubated for 16 hours. After the treatments, numbers of cell on the lower surface membrane were stained, photographed and counted for quantitation of migrated and invaded cells.
(§2) FIG. 1B: Quantitation of effect of Camphorataimide B on migration and invasion of colon cancer cells. Quantitative results were presented as means±SD. Three independent experiments were performed for statistical analysis. * and ** represented P<0.01 and P<0.001 as compared to control, respectively.
(§3) Cells were pretreated with Camphorataimide B for 24 hours, harvested and then seeded on to 24-well cell culture inserts (8 μm pore size, Millipore). […] The stained cells were photographed and quantified form five random fields under microscopic examination. […] Cells invaded into the lower surface of the insert were quantitated as described earlier.

[2] = system: colon cancer cells (DLD-1, SW480 and SW620); assay: Cell invasion assay (Matrigel coated transwell); format: cell-based, human
Method: as §1, §2, §3

[3] = system: colon cancer cells (DLD-1, SW480 and SW620); assay: Cell adhesion assay; format: cell-based, human; details: pretreated 24 hours, Matrigel coated plates, 8 hours
Method: FIG. 1C: Effect of Camphorataimide B on adhesion of colon cancer cells. The three colon cancer cells were pretreated with the indicated concentrations of Camphorataimide B for 24 hours, seeded on a matrix coated monolayer dish, and then incubated for 8 hours. After washing with PBS, the attached cells were photographed and quantitated.
FIG. 1D: Quantitation of effect of Camphorataimide B on adhesion of colon cancer cells. Quantitative results were presented as means±SD. Three independent experiments were performed for statistical analysis. * and ** represented P<0.01 and P<0.001 as compared to control, respectively.
Cells were incubated with serial concentration of Camphorataimide B in a complete medium for 24 hours, transferred in to 12-well Matrigel coated plates (10^5 cells per well), and incubated at 37° C. for 8 hours. After the incubation, non-adherent cells were removed by PBS washing and the attached cells were photographed and quantitated using a cell counter.

[4] = system: colon cancer cells (DLD-1, SW480 and SW620); assay: Soft agar colony formation assay; format: cell-based, human; details: 1 week
Method: FIG. 1E: Effect of Camphorataimide B on colony formation of colon cancer cells. The three colon cancer cells were pretreated with indicated concentration of Camphorataimide B for 24 hours, seeded on soft agar plates, and then incubated for one week. After the treatments, the number of colonies was quantitated. Quantitative results were presented as means±SD. Three independent experiments were performed for statistical analysis. * and ** represented P<0.01 and P<0.001 as compared to control, respectively.
Cells suspended in agarose medium (10% FBS and 0.3 agarose in medium) containing serial concentrations of Camphorataimide Bwere plated onto 6-well plate which was pre-coated with a layer of solidified agarose (10% FBS and 0.6% agarose in medium), and then incubated at 37° C. in a humidified atmosphere containing 5% CO2 for 1 week. At the end of incubation, cell colonies were fixed, stained with crystal violet, and then photographed using Nikon Eclipse TE2000-U microscope equipped with a Nikon Digital Camera DXM1200 and those colonies with size greater than 0.1 mm were counted.

[5] = system: F-actin in colon cancer cells (DLD-1, SW480 and SW620); assay: Immunofluorescence (phalloidin) staining of F-actin cytoskeleton; format: cell-based, human; details: confocal microscope, compared to control
Method: FIG. 1F: Effect of Camphorataimide B on cytoskeleton structure of colon cancer cells. The treated cells were seeded on a matrix-coated dish, and then F-actin (red) was detected by immunofluorescence staining, while the nuclei (blue) were detected by DAPI staining. Fluorescent images were acquired by using confocal microscopy. Scale bars, […].
Adherent cells were fixed on the glass slides using 4% ice-cold formaldehyde and reacted with blocking buffer and 0.5% Triton X-100 for 1 hour at room temperature. The reacted cells were incubated with primary antibodies overnight at 4° C. The bound primary antibodies were detected using Alexa Fluor-labeled secondary antibody (Jackson ImmunoResearch Laboratories, West Grove, Pa., USA). Alexa Fluor-conjugated phalloidin (Cell Signaling) was used for detection of polymerized F-actin microfilaments. Fluorescence image was acquired by using a laser scanning confocal microscope system (Zeiss 510 meta, Zeiss, Oberkochen, Germany).

[6] = system: DLD-1 cells; assay: Ex vivo xenograft mice model: pretreated DLD-1 cells injected into spleen and peritoneal site; format: in vivo, Balb/c nude mice
Method: Luciferase expressing DLD-1 cells were pretreated with or without 30 μM Camphorataimide B for 24 hours, and then injected into the abdomen and spleen of Balb/c nude mice (five mice for each group), 35 days after implantation, the representative ex vivo images for liver and abdominal metastasis burden in xenografted animals were monitored using bioluminescent imaging (BLI).
FIG. 2B: Quantitation of results of FIG. 2A. Luciferase expressing DLD-1 cells were pretreated with or without 30 μM Camphorataimide B for 24 hours, and then injected into the abdomen and spleen of Balb/c nude mice. After 35 days implantation, the mice were photographed and tumor metastatic capability was analyzed. * and ** represented P<0.01 and P<0.001 as compared to untreated group, respectively.
FIG. 2C: Camphorataimide B suppressed hepatic and abdominal metastasis of DLD-1 cells in ex vivo xenograft mice model. DLD-1 cells were pretreated with or without 30 μM Camphorataimide B for 24 hours, and then spleeny and intraperitoneally injected into Balb/c mice, respectively. After 35 days, the mice were sacrificed and the tissues were obtained and photographed.
FIG. 2D: Quantitation of results of FIG. 2C. DLD-1 cells were pretreated with or without 30 μM Camphorataimide B for 24 hours, and then spleeny and intraperitoneally injected into Balb/c mice, respectively. After 35 days, the mice were sacrificed and photographed. Total weight of tumor foci from the metastatic tissues were presented and quantitated. *, P<0.01 and P<0.001 between the indicated groups.
FIG. 2E: Camphorataimide B suppressed metastasis in ex vivo xenograft mice model. […]
(§4) Male Balb/c nude mice aged four weeks were purchased from National Laboratory Animal Center of Taiwan (Taipei City, Taiwan) and maintained under supervision of the Institutional Animal Care and Use Committee at Chung Shan Medical University. […] The liver metastasis burden was monitored weekly by bioluminescence imaging (BLI). […]

[7] = system: Luciferase expressing DLD-1 cells; assay: In vivo xenograft mice model: oral treatment after Luc-DLD-1 injection; set-up: species or system Balb/c nude mice
Method: Luciferase expressing DLD-1 cells were suspended in phosphate buffered saline and injected into the spleen and peritoneal site of 5-week-old male Balb/c nude mice, respectively. After one week, the mice were orally administrated with 10 or 20 mg/kg Camphorataimide B or saline vehicle for one month (five mice for each group). IVIS luciferase in vivo images of liver and abdominal metastasis burden were monitored using bioluminescent imaging (BLI). Data represented mean±SD. * and ** represented P<0.01 and P<0.001 between the indicated groups, respectively.
FIG. 2G: Camphorataimide B suppressed hepatic and abdominal metastasis of DLD-1 cells in in vivo xenograft mice model. Luciferase expressing DLD-1 cells were suspended in phosphate buffered saline and injected into the spleen and peritoneal site of Balb/c nude mice, respectively. After one week, the mice were orally administrated with 10 or 20 mg/kg Camphorataimide B or saline vehicle (five mice for each group). After one month, the mice were sacrificed and the tissues were obtained and photographed.
FIG. 2H: Quantitation of results of FIG. 2G. Luciferase expressing DLD-1 cells were suspended in phosphate buffered saline and injected into the spleen and peritoneal site of Balb/c nude mice, respectively. After one week, the mice were orally administrated with 10 or 20 mg/kg Camphorataimide B or saline vehicle (five mice for each group). After 35 days, the mice were sacrificed and photographed. Total weight of tumor foci from the metastatic tissues were presented and quantitated. * and ** represented P<0.01 and P<0.001 between the indicated groups, respectively.
as §4

[8] = system: breast cancer cells; details: reported; cited from earlier work
[9] = 20 and 30 μM, P<0.01 as compared to control

In the case of `CC(C)=CCOc1ccc(C2=C(CC(C)C)C(=O)NC2=O)cc1` [Camphorataimide B], the inhibition of migration [1, 9] is reported as “significant”, the “migration of colon cancer cells” value ([1]; pretreated 24 hours, indicated concentrations, transwell 12 hours) is reported as “dose-dependently inhibited” and the inhibition of invasiveness [2, 9] is reported as “significant”. For the same molecule, the “invasiveness of colon cancer cells” value ([2]; pretreated 24 hours, indicated concentrations, Matrigel transwell 16 hours) was “dose-dependently inhibited”, the adherent cell numbers [3] was “significantly reduced” and the colony numbers [4] was “significantly reduced”. The “regular architecture and expression level of F-actin” value [5] was “disrupted and decreased”, the “attachment to colon tissue, number and size of tumors” value ([6]; DLD-1 cells pretreated with 30 μM for 24 hours, after 35 days) was “rarely attached to colon tissue and formed fewer number and smaller size of tumors” and the “hepatic and abdominal metastatic lesion (hematoxylin and eosin staining)” value ([6]; DLD-1 cells pretreated with 30 μM for 24 hours, day 35, compared to untreated cells) was “significantly diminished”. For the same molecule, the “liver and abdominal metastasis burden (bioluminescent imaging)” value ([6]; Luc-DLD-1 cells pretreated with 30 μM for 24 hours, 35 days after implantation) was “suppressed liver and abdominal metastasis”, the “tumor size by bioluminescent imaging” value ([7]; oral 10 and 20 mg/kg every three days for 1 month) was “smaller tumors than tumor group” and the “tumor growth and metastatic ability” value ([7]; oral 10 and 20 mg/kg every three days for 1 month, versus untreated tumors) was “grew slowly and less metastatic ability than untreated tumors”. For the same molecule, the “increased gross weight of tumor” value ([7]; oral 10 and 20 mg/kg every three days, after 35 days) was “notably inhibited” and the “tumor growth in breast cancer cells” value [8] was “can inhibit tumor growth”.
